Minimum inhibitory concentration data for twelve compounds are collected here from patent publication US20110264139A1, “SUTURES AND FIBROSING AGENTS” (Angiotech Pharmaceuticals, Inc., priority 2006, published 2011).

Experiment in all cases: MIC assay, microtitre broth dilution
Assay type in all cases: cell-based

One assay concerns E. Coli UB1005 C498. The settings on record: E. Coli UB1005 C498 wt, Gram −; Mueller Hinton broth, 37° C., 24 h. As for the experimental part:
(§1) MIC assays were conducted essentially as described by Amsterdam, D. 1996, “Susceptibility testing of antimicrobials in liquid media,” p. 52-111. In Loman, V., ed. Antibiotics in Laboratory Medicine, 4th ed. Williams and Wilkins, Baltimore, Md. Briefly, a variety of compounds were tested for antibacterial activity against isolates of P. aeruginosa, K. pneumoniae , E. coli, S. epidermidus, and S. aureus in the MIC (minimum inhibitory concentration) assay under aerobic conditions using 96 well polystyrene microtitre plates (Falcon 1177), and Mueller Hinton broth at 37° C. incubated for 24 h. (MHB was used for most testing except C721 (S. pyogenes), which used Todd Hewitt broth, and Haemophilus influenzae, which used Haemophilus test medium (HTM)). Tests were conducted in triplicate.

In assay [1] the test system is P. aeruginosa PAE/K799 H187. To be noted: P. aeruginosa PAE/K799 H187 wt, Gram −; Mueller Hinton broth, 37° C., 24 h. As for the experimental part: as §1
The next assay has as its system S. aureus ATCC25923 C622. The settings on record: S. aureus ATCC25923 C622 wt, Gram +; Mueller Hinton broth, 37° C., 24 h. As for the experimental part:
as §1

In the next assay the test system is S. pyogenes C721. The settings on record: S. pyogenes C721 wt, Gram +; Todd Hewitt broth, 37° C., 24 h. How it is done:
as §1

The subject of a further assay is S. epidermidis C621. The settings on record: S. epidermidis C621 wt, Gram +; Mueller Hinton broth, 37° C., 24 h. How it is done:
as §1

In assay [2] the test system is K. pneumoniae ATCC13883 C238. To be noted: K. pneumoniae ATCC13883 C238 wt, Gram −; Mueller Hinton broth, 37° C., 24 h. How it is done:
as §1

Consider `Sc1ncc2[nH]cnc2n1` [2-mercaptopurine], for which the Minimum inhibitory concentration entry (in the assay with E. Coli UB1005 C498; in assay [1]; in the assay on S. aureus ATCC25923 C622; with S. pyogenes C721; in the assay on S. epidermidis C621; in assay [2]) was “N” each time.
Regarding `O=c1[nH]cc(F)c(=O)[nH]1` [5-fluorouracil], the Minimum inhibitory concentration is reported as 10^−6 molar in the assay on E. Coli UB1005 C498; 10^−5 molar in assay [1]; 10^−7 molar in the assay on S. aureus ATCC25923 C622; 10^−4 molar with S. pyogenes C721; 10^−7 molar in the assay with S. epidermidis C621; 10^−6 molar in assay [2].
For the compound `Sc1ncnc2nc[nH]c12` [6-mercaptopurine], the Minimum inhibitory concentration entry (in the assay on E. Coli UB1005 C498; in assay [1]; in the assay on S. aureus ATCC25923 C622; in the assay on S. pyogenes C721; in the assay with S. epidermidis C621; in assay [2]) was “N” throughout.
Take `Nc1ccn([C@@H]2O[C@H](CO)[C@@H](O)[C@@H]2O)c(=O)n1` [Cytarabine]: the Minimum inhibitory concentration result (in the assay with E. Coli UB1005 C498; in assay [1]; in the assay on S. aureus ATCC25923 C622; in the assay with S. pyogenes C721; in the assay on S. epidermidis C621; in assay [2]) was “N” each time.
Take `CC[C@@]1(O)C(=O)OCc2c1cc1n(c2=O)Cc2cc3ccccc3nc2-1` [camptothecin]: the Minimum inhibitory concentration result in the assay on E. Coli UB1005 C498 is recorded as “N”; in assay [1] it was “N”; with S. aureus ATCC25923 C622, “N”; with S. pyogenes C721 it was “N”; in the assay on S. epidermidis C621, 10^−4 molar; in assay [2], “N”.
For `COc1cccc2c1C(=O)c1c(O)c3c(c(O)c1C2=O)C[C@@](O)(C(=O)CO)C[C@@H]3O[C@H]1C[C@H](N)[C@H](O)[C@H](C)O1` [doxorubicin], the Minimum inhibitory concentration with E. Coli UB1005 C498 was 10^−4 molar; in assay [1] it was 10^−5 molar; with S. aureus ATCC25923 C622 it was 10^−5 molar; with S. pyogenes C721 it was 10^−7 molar; with S. epidermidis C621 it was 10^−6 molar; in assay [2], 10^−6 molar.
With `COc1cc([C@@H]2c3cc4c(cc3[C@@H](O[C@@H]3O[C@@H]5CO[C@@H](C)O[C@H]5[C@H](O)[C@H]3O)[C@H]3COC(=O)[C@H]23)OCO4)cc(OC)c1O` [etoposide], the Minimum inhibitory concentration result in the assay on E. Coli UB1005 C498 was “N”; in assay [1] it was “N”; in the assay with S. aureus ATCC25923 C622 it was 10^−5 molar; in the assay with S. pyogenes C721, 10^−5 molar; in the assay with S. epidermidis C621 it was 10^−6 molar; in assay [2] it was 10^−5 molar.
As to `NC(=O)NO` [hydroxyurea], the Minimum inhibitory concentration result with E. Coli UB1005 C498 was “N”; in assay [1] it was 10^−4 molar; in the assay on S. aureus ATCC25923 C622, “N”; with S. pyogenes C721, 10^−4 molar; in the assay on S. epidermidis C621 it was “N”; in assay [2], “N”.
On to `CN(Cc1cnc2nc(N)nc(N)c2n1)c1ccc(C(=O)N[C@@H](CCC(=O)O)C(=O)O)cc1` [methotrexate], for which the Minimum inhibitory concentration entry was “N” in the assay on E. Coli UB1005 C498; “N” in assay [1]; 10^−5 molar with S. aureus ATCC25923 C622; 10^−6 molar with S. pyogenes C721; “N” in the assay with S. epidermidis C621; 10^−6 molar in assay [2].
Regarding `O=C1c2c(O)ccc(O)c2C(=O)c2c(NCCNCCO)ccc(NCCNCCO)c21` [mitoxantrone], the Minimum inhibitory concentration is on record as 10^−5 molar in the assay with E. Coli UB1005 C498; 10^−5 molar in assay [1]; 10^−5 molar with S. aureus ATCC25923 C622; 10^−6 molar with S. pyogenes C721; 10^−5 molar in the assay on S. epidermidis C621; 10^−6 molar in assay [2].
In the case of `Nc1ncnc2c1ccn2[C@@H]1O[C@H](CO)[C@@H](O)[C@H]1O` [tubercidin], the Minimum inhibitory concentration entry (in the assay with E. Coli UB1005 C498; in assay [1]; in the assay on S. aureus ATCC25923 C622; in the assay with S. pyogenes C721; in the assay with S. epidermidis C621; in assay [2]) was “N” in each case.
Consider cisplatin, for which the Minimum inhibitory concentration entry in the assay on E. Coli UB1005 C498 is recorded as “N”; in assay [1] it was 10^−4 molar; in the assay with S. aureus ATCC25923 C622, “N”; in the assay on S. pyogenes C721 it was “N”; with S. epidermidis C621 it was “N”; in assay [2] it was “N”.
